Reference: patent publication US20210330611A1, “THERAPY FOR NEUROLOGICAL DISEASES/DISORDERS” (priority 2020, published 2021)

Legend:
2D2 T cells = assay: Antigen-specific T-cell proliferation (BrdU, 2D2 T cells with MOG35-55-pulsed BMDMs); type: cell-based, mouse; conditions: 5, 0.5 or 0.05 μM, FIG. 14G, H
Description: T-cell proliferation assay. For antigen-specific T cell proliferation, näive CD4+ T cells were magnetically sorted from the TCR-transgenic 2D2 mice using naïve CD4+ T cell isolation kits (Miltenyi Biotec). […]. For non-antigen-specific T cell proliferation, naïve CD4^+ T cells were treated with acivicin and stimulated with mouse T-activator CD3/CD28 Dynabeads (Thermo Fisher Scientific) for 3 d. Cells were then fixed, permeabilized, and stained with FITC-conjugated anti-BrdU (BrdU Flow Kits, BD Biosciences).

CD4+ T cells = assay: Flow cytometry of splenocyte T cells from MOG35-55 EAE mice; type: in vivo, mouse; conditions: splenocytes, 10 days treatment, FIG. 14C-F
Description: Flow cytometry. Cells were incubated with anti-mouse CD16/CD32 antibody (2.4G2) diluted in PBS with 2% FBS, and 2 mM EDTA at 4° C. for 15 min to block Fc receptor binding. Cells were stained with fluorescent-conjugated antibodies: CD3 (17A2), CD4 (GK1.5), CD8 (53-6.7), CD62L (MEL-14), CD44 (1M7), CD25 (3C7), CD11b (M1/70), CD45 (30-F11), and MHC II (M5/114.15.2). For surface labeling of GGT1, unconjugated mouse monoclonal anti-GGT1 (1:100; ab55138, Abcam) was incubated with surface markers for 1 hr at 4° C. Then FITC conjugated species-specific secondary antibody (1:100) was added for 1 hr at 4° C. For intracellular staining of IFN-γ and IL-17A, T cells were stimulated for 4 hr with Cell Activation Cocktail (BioLegend). Cells were then fixed with Cytofix/Cytoperm solution (BD Bioscience) and stained with antibodies to IL-17A (TC11-18H10.1), or IFN-γ (XMG1.2). Foxp3 (FJK-16S) staining was performed according to the manufacturer's protocol (eBioscience). Cells were analyzed by flow cytometry on an LSR II (BD Biosciences) with FlowJo software (Tree Star Inc.). Antibodies were purchased from BioLegend, BD Biosciences, or eBioscience.

BMDMs = type: cell-based, mouse; conditions: 24 h, FIG. 12
Description: FIGS. 12A-E. Effects of acivicin on microglia, macrophage and whole blood cell numbers. a, Representative images showing morphology and density of primary microglia treated with vehicle or acivicin for 48 h stained with nuclei marker Hoechst or CellMask Red Whole Cell Stain. Quantification of the total number of microglia. Data are representative of one experiment with technical replicates (open symbols). b, Representative confocal images showing morphology and density of control- and acivicin-treated BMDMs treated for 24 h. Scale bar, 100 μm. Insets depict digitally zoomed in areas of regions of interest. Quantification of the total number of BMDMs in the field of view. […] Cell viability of single CD45^+ cells was assessed by Sytox blue live/dead nuclei stain. Quantification of percent cell viability of CD45^+ BMDMs treated with acivicin or left untreated. Data are from 2 independent experiments with n=4 mice per group (mean±s.d.). d, Quantification of complete blood count analysis of white blood cells (WBCs), red blood cells (RBC), platelets (PLT) (left) and composition of WBCs (right) of blood samples from healthy mice treated with saline or acivicin for 10 days. […] Quantification of total microglia cell numbers in healthy mice treated with acivicin or saline. […]

human macrophages = assay: ROS production (DHE) in fibrin-stimulated human macrophages; type: cell-based; conditions: fibrin 24 h, 5 μM inhibitor, FIG. 6b
Description: Human macrophage cultures. Human peripheral blood mononuclear cells (PBMCs) were purchased from AllCells, LLC (Alameda, Calif.). To differentiate PBMC into monocyte-derived macrophages, 2×10^6 PBMC/mL were plated in RPMI-1640 media supplemented with 10% FBS, 1% penicillin-streptomycin (Corning), and 50 ng/ml human M-CSF (300-25, Peprotech) in tissue-culture treated dishes (Corning). After 24 h, non-adherent cells were removed, and adherent cells were cultivated for 7-8 additional days at 37° C. in 5% CO2 to promote their full differentiation into macrophages. Oxidant detection with DHE. Intracellular concentrations of ROS were measured using dihydroethidium (DHE) as described (9). Cultured BMDMs or human macrophages were incubated in medium containing 5 μM DHE (Invitrogen) for 30 min Cells were plated on 96-well, black μ-clear-bottom microtiter plates (Greiner Bio-One) pre-coated with 25 μg/ml fibrin. For GGT inhibition, BMDMs or human macrophages were pre-incubated with 5 μM acivicin or GGsTop for 1 h, and the cells were plated on fibrin-coated 96-well plates as described above. PBS was used as vehicle control. Cells were then incubated for 24-48 h and fixed with 4% PFA for 10 min. The DHE fluorescence was detected at an excitation/emission wavelength of 518 nm/605 nm using a SpectraMax M5 microplate reader (Molecular Devices) with SoftMax Pro 5.2 software (Phoenix Technologies Ltd.).

mouse BMDMs = assay: ROS production (DHE) in fibrin-stimulated mouse BMDMs; type: cell-based; conditions: fibrin 24 h, 5 μM inhibitor, FIG. 6b
Description: Bone marrow—derived macrophage cultures. […]. In brief, bone-marrow cells were isolated from tibia and femur of C57BL/6 mice, Ggt1^+/+ mice or Ggt1^dwg/dwg mice and cultured in RPMI-1640 medium supplemented with 10% FBS, 1% penicillin-streptomycin (Corning), and 10 ng/ml murine M-CSF (14-8983-80, Thermo Fisher Scientific). On days 6-7, adherent BMDMs were harvested by adding PBS with 5 mM EDTA to the plates and used for assays.
Human macrophage cultures. Human peripheral blood mononuclear cells (PBMCs) were purchased from AllCells, LLC (Alameda, Calif.). To differentiate PBMC into monocyte-derived macrophages, 2×10^6 PBMC/mL were plated in RPMI-1640 media supplemented with 10% FBS, 1% penicillin-streptomycin (Corning), and 50 ng/ml human M-CSF (300-25, Peprotech) in tissue-culture treated dishes (Corning). After 24 h, non-adherent cells were removed, and adherent cells were cultivated for 7-8 additional days at 37° C. in 5% CO2 to promote their full differentiation into macrophages. Oxidant detection with DHE. Intracellular concentrations of ROS were measured using dihydroethidium (DHE) as described (9). […] The DHE fluorescence was detected at an excitation/emission wavelength of 518 nm/605 nm using a SpectraMax M5 microplate reader (Molecular Devices) with SoftMax Pro 5.2 software (Phoenix Technologies Ltd.).

in vitro = conditions: rat, Cell Toxicity IC50 (uM) [cFib assay], cFib assay
adoptive transfer EAE = assay: Adoptive transfer EAE induced by PLP139-151-specific T cells, clinical scores; type: in vivo, mouse; conditions: prophylactic, 5 mg/kg daily from day 0, FIG. 7d
chronic NOD MOG35-55 EAE = assay: Chronic MOG35-55 EAE in NOD mice, clinical scores; type: in vivo, mouse; conditions: therapeutic, daily from day 80 to day 113, FIG. 8b

N[C@H](C(=O)O)[C@@H]1CC(Cl)=NO1 [Acivicin, (2S)-2-amino-2-[(5S)-3-chloro-4,5-dihydro-1,2-oxazol-5-yl] acetic acid]
encephalitogenic T cell proliferation (BrdU) with APCs (2D2 T cells): suppressed
IFN-γ-producing T cells (CD4+ T cells): selectively decreased
IL-17-producing T cells (CD4+ T cells): selectively decreased
macrophage cell number in vitro (BMDMs): did not affect
ROS generation (DHE) in human macrophages (human macrophages): decreased
ROS generation (DHE) in mouse macrophages (mouse BMDMs): decreased
IC50 (in vitro): > 20 µM
disease onset and severity (adoptive transfer EAE): delayed
progression, clinical signs (chronic NOD MOG35-55 EAE): suppressed progression
